{
  "source": "patent US12268657B2",
  "about": "“Coenzyme Q10 composition, and preparation method and application thereof in cardio-protection” (Guangdong Runhe Biotechnology Co., Ltd, priority 2023, dated 2025)",
  "system": "myocardial ischemia rat models",
  "assay": "Protective effect on myocardial ischemia in rat model (coronary artery clamping)",
  "type": "in vivo",
  "conditions": "SD rats, 0.2 mg/kg per day for one week",
  "description": "Specifically, several SD rats weighing about 200 g were selected to prepare myocardial ischemia rat models by a coronary artery clamping method. The successful-established model rats were uniformly divided into a blank group, a control group, and a treatment group, with 8 rats in each group. The blank group was not treated with any drug during the observation period, the control group was administered with 0.2 mg/kg of coenzyme Q10 per day for one week, and the treatment group was administered with 0.2 mg/kg of the coenzyme Q10 slow-release drug per day for one week. After the one-week administration, the myocardial infarction area, and superoxide dismutase (SOD) and malondialdehyde (MDA) content in the serum of the rats after artery ligation were recorded, and the results were shown in the table below. […] Moreover, after treatment with the slow-release drug, the activity of SOD was improved, and the generation of MDA was inhibited, which was favorable to reducing the occurrence of infarction.",
  "data": [
    {"smiles": "COC1=C(OC)C(=O)C(C/C=C(\\C)CC/C=C(\\C)CC/C=C(\\C)CC/C=C(\\C)CC/C=C(\\C)CC/C=C(\\C)CC/C=C(\\C)CC/C=C(\\C)CC/C=C(\\C)CCC=C(C)C)=C(C)C1=O", "note": "[coenzyme Q10, Coenzyme Q10]", "values": [
      {"measurement": "Myocardial infarction area (%)", "result": "14.69 ± 1.14", "unit": "%"},
      {"measurement": "MDA", "setting": "serum", "result": "6.57 ± 0.68", "unit": "nmol/mL"},
      {"measurement": "SOD (NU/mL)", "setting": "serum", "result": "220.34 ± 8.56", "unit": "NU/mL"}
    ]}
  ]
}
